Experimental data: paper PMC11995724, “Antibiotic target discovery by integrated phenotypic and activity-based profiling of electrophilic fragments” (Cell chemical biology, 2025)

Experiment: in vitro
Details: human, hek293t cells

With `O=C(CCl)NCCc1c(F)cccc1F` [5-F20, 2-chloro-N-[2-(2,6-difluorophenyl)ethyl]acetamide] as the compound, how does the viability at 48 h, 25 µM read?
Its viability at 48 h, 25 µM is 15.5%.

With `CC(Cl)C(=O)N1CC(n2cc(C(N)=O)nn2)C1` (stereo not drawn) [5-F21, 1-[1-(2-chloropropanoyl)azetidin-3-yl]-1H-1,2,3-triazole-4-carboxamide] as the compound, how does the viability at 48 h, 25 µM read?
The viability at 48 h, 25 µM was 94.6%.

Which viability at 48 h, 25 µM does the source give for `O=C(CCl)N(Cc1ccccc1)Cc1ccco1` [5-F22, N-benzyl-2-chloro-N-[(furan-2-yl)methyl]acetamide] here?
Its viability at 48 h, 25 µM is 0.693%.

Which viability at 48 h, 25 µM does the source give for `COc1ccc(NC(C)=O)cc1NC(=O)CCl` [5-G03, 2-chloro-N-(5-acetamido-2-methoxyphenyl)acetamide] here?
The viability at 48 h, 25 µM was 1.44%.

For `CCC(=O)NC1CCN(C(=O)CCl)C1` (stereo not drawn) [5-G04, N-[1-(2-chloroacetyl)pyrrolidin-3-yl]propanamide], which viability at 48 h, 25 µM is on record?
The viability at 48 h, 25 µM was 10.3%.

For `CC(Cl)C(=O)Nc1ccccc1C(N)=O` (stereo not drawn) [5-G05, 2-(2-chloropropanamido)benzamide], which viability at 48 h, 25 µM is on record?
The viability at 48 h, 25 µM was 101%.

For `Cc1noc(C)c1CN(C)C(=O)CCl` [5-G06, 2-chloro-N-[(3,5-dimethyl-1,2-oxazol-4-yl)methyl]-N-methylacetamide], which viability at 48 h, 25 µM is on record?
The viability at 48 h, 25 µM was 1.87%.

Which viability at 48 h, 25 µM does the source give for `COc1ccc2[nH]c3c(c2c1)CCCC3NC(=O)CCl` (stereo not drawn) [5-G07, 2-chloro-N-(6-methoxy-2,3,4,9-tetrahydro-1H-carbazol-1-yl)acetamide] here?
Its viability at 48 h, 25 µM is 0.129%.

Which viability at 48 h, 25 µM does the source give for `O=C(CCl)N1CCOc2c1cccc2C(F)(F)F` [5-G08, 2-chloro-1-[8-(trifluoromethyl)-3,4-dihydro-2H-1,4-benzoxazin-4-yl]ethan-1-one] here?
Its viability at 48 h, 25 µM is 0.974%.

For `O=C(CCl)NC1CCC2(CCC1(F)F)OCCO2` (stereo not drawn) [5-G09, 2-chloro-N-{9,9-difluoro-1,4-dioxaspiro[4.6]undecan-8-yl}acetamide], which viability at 48 h, 25 µM is on record?
The viability at 48 h, 25 µM was 5.9%.

Which viability at 48 h, 25 µM does the source give for `O=C(CCl)N1CC(S(=O)(=O)Nc2ccccc2)C1` [5-G10, 1-(2-chloroacetyl)-N-phenylazetidine-3-sulfonamide] here?
Its viability at 48 h, 25 µM is 1.28%.

Which viability at 48 h, 25 µM does the source give for `CC(NC(=O)CCl)C(=O)Nc1ccc(Cl)cc1` (stereo not drawn) [5-G11, 2-(2-chloroacetamido)-N-(4-chlorophenyl)propanamide] here?
The viability at 48 h, 25 µM was 1.06%.

With `Cc1cc(CN(Cc2cnn(C)c2)C(=O)CCl)ccc1Cl` [5-G12, 2-chloro-N-[(4-chloro-3-methylphenyl)methyl]-N-[(1-methyl-1H-pyrazol-4-yl)methyl]acetamide] as the compound, how does the viability at 48 h, 25 µM read?
The viability at 48 h, 25 µM was -0.0746%.

Which viability at 48 h, 25 µM does the source give for `CC(C)c1cccc(C(C)C)c1NC(=O)CCl` [5-G13, N-[2,6-bis(propan-2-yl)phenyl]-2-chloroacetamide] here?
Its viability at 48 h, 25 µM is 37.8%.

For `Cc1cc(CN(Cc2ccn(C)n2)C(=O)CCl)ccc1F` [5-G14, 2-chloro-N-[(4-fluoro-3-methylphenyl)methyl]-N-[(1-methyl-1H-pyrazol-3-yl)methyl]acetamide], which viability at 48 h, 25 µM is on record?
Its viability at 48 h, 25 µM is 0.658%.

With `O=C(CCl)Nc1nc2c(s1)CCCC2` [5-G15, 2-chloro-N-(4,5,6,7-tetrahydro-1,3-benzothiazol-2-yl)acetamide] as the compound, how does the viability at 48 h, 25 µM read?
The viability at 48 h, 25 µM was 1.2%.

Which viability at 48 h, 25 µM does the source give for `CCn1cc(CN(C(=O)CCl)[C@H]2CC[C@H](C)CC2)cn1` [5-G16, 2-chloro-N-[(1-ethyl-1H-pyrazol-4-yl)methyl]-N-[(1r,4r)-4-methylcyclohexyl]acetamide] here?
Its viability at 48 h, 25 µM is 0.893%.

For `Cc1c(NC(=O)CCl)c(=O)n(-c2ccccc2)n1C` [5-G17, 2-chloro-N-(1,5-dimethyl-3-oxo-2-phenyl-2,3-dihydro-1H-pyrazol-4-yl)acetamide], which viability at 48 h, 25 µM is on record?
The viability at 48 h, 25 µM was 42.7%.

With `O=C(CCl)N1CCCCC1c1nc(-c2ccccn2)cs1` (stereo not drawn) [5-G18, 2-chloro-1-{2-[4-(pyridin-2-yl)-1,3-thiazol-2-yl]piperidin-1-yl}ethan-1-one] as the compound, how does the viability at 48 h, 25 µM read?
Its viability at 48 h, 25 µM is 0.612%.

With `O=C(CCl)Nc1cc(Cl)ccc1Oc1ccccc1` [5-G19, 2-chloro-N-(5-chloro-2-phenoxyphenyl)acetamide] as the compound, how does the viability at 48 h, 25 µM read?
The viability at 48 h, 25 µM was 0.676%.

With `O=C(CCl)N1CC(Cc2ccc(F)cc2F)C1` [5-G20, 2-chloro-1-{3-[(2,4-difluorophenyl)methyl]azetidin-1-yl}ethan-1-one] as the compound, how does the viability at 48 h, 25 µM read?
Its viability at 48 h, 25 µM is 0.867%.
